PubChem BioAssay (NCI)
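Compound exposure: 48 hours, 5 concentrations, 96-well plates. Definition used: TGI = concentration required for complete inhibition of growth.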

What was measured:
Assay in all cases: NCI tumour cell line growth inhibition, 48 h
786-0 renal = test system: 786-0 renal
A498 renal = test system: A498 renal
A549 NSCLC = test system: A549 NSCLC
ACHN renal = test system: ACHN renal
BT-549 breast = test system: BT-549 breast
CAKI-1 renal = test system: CAKI-1 renal
CCRF-CEM leukemia = test system: CCRF-CEM leukemia
COLO 205 colon = test system: COLO 205 colon
DLD-1 colon = test system: DLD-1 colon
DMS 114 small cell lung = test system: DMS 114 small cell lung
DMS 273 small cell lung = test system: DMS 273 small cell lung
DU-145 prostate = test system: DU-145 prostate
EKVX NSCLC = test system: EKVX NSCLC
HCC-2998 colon = test system: HCC-2998 colon
HCT-116 colon = test system: HCT-116 colon
HCT-15 colon = test system: HCT-15 colon
HL-60(TB) leukemia = test system: HL-60(TB) leukemia
HOP-18 NSCLC = test system: HOP-18 NSCLC
HOP-62 NSCLC = test system: HOP-62 NSCLC
HOP-92 NSCLC = test system: HOP-92 NSCLC
HT29 colon = test system: HT29 colon
IGROV1 ovarian = test system: IGROV1 ovarian
K-562 leukemia = test system: K-562 leukemia
KM12 colon = test system: KM12 colon
KM20L2 colon = test system: KM20L2 colon
LOX IMVI melanoma = test system: LOX IMVI melanoma
LXFL 529 NSCLC = test system: LXFL 529 NSCLC
M14 melanoma = test system: M14 melanoma
M19-MEL melanoma = test system: M19-MEL melanoma
MALME-3M melanoma = test system: MALME-3M melanoma
MCF7 breast = test system: MCF7 breast
MDA-MB-231 breast = test system: MDA-MB-231 breast
MDA-MB-435 = test system: MDA-MB-435
MDA-N = test system: MDA-N
MOLT-4 leukemia = test system: MOLT-4 leukemia
NCI-H226 lung = test system: NCI-H226 lung
NCI-H23 lung = test system: NCI-H23 lung
NCI-H460 lung = test system: NCI-H460 lung
NCI-H522 lung = test system: NCI-H522 lung
OVCAR-3 ovarian = test system: OVCAR-3 ovarian
OVCAR-4 ovarian = test system: OVCAR-4 ovarian
OVCAR-5 ovarian = test system: OVCAR-5 ovarian
OVCAR-8 ovarian = test system: OVCAR-8 ovarian
PC-3 prostate = test system: PC-3 prostate
RPMI-8226 leukemia = test system: RPMI-8226 leukemia
RXF 393 renal = test system: RXF 393 renal
RXF-631 renal = test system: RXF-631 renal
SF-268 CNS = test system: SF-268 CNS
SF-295 CNS = test system: SF-295 CNS
SF-539 CNS = test system: SF-539 CNS
SK-MEL-2 melanoma = test system: SK-MEL-2 melanoma
SK-MEL-28 melanoma = test system: SK-MEL-28 melanoma
SK-MEL-5 melanoma = test system: SK-MEL-5 melanoma
SK-OV-3 ovarian = test system: SK-OV-3 ovarian
SN12C renal = test system: SN12C renal
SNB-19 CNS = test system: SNB-19 CNS
SNB-75 CNS = test system: SNB-75 CNS
SNB-78 CNS = test system: SNB-78 CNS
SR leukemia = test system: SR leukemia
SW-620 colon = test system: SW-620 colon
T-47D breast = test system: T-47D breast
TK-10 renal = test system: TK-10 renal
U251 CNS = test system: U251 CNS
UACC-257 melanoma = test system: UACC-257 melanoma
UACC-62 melanoma = test system: UACC-62 melanoma
UO-31 renal = test system: UO-31 renal
XF 498 CNS = test system: XF 498 CNS

In the case of `Nc1nc(-c2ccccc2)c(Cl)c(-c2cc(Cl)ccc2O)n1`, the TGI (786-0 renal) is reported as 57.8 µM, the TGI (A498 renal) is reported as greater than 76.5 µM and the TGI (A549 NSCLC) is reported as 71 µM. For the same compound, the TGI (ACHN renal) was 21.5 µM, the TGI (BT-549 breast) was greater than 100 µM and the TGI (CAKI-1 renal) was 47.2 µM. The TGI (CCRF-CEM leukemia) was greater than 100 µM, the TGI (COLO 205 colon) was greater than 100 µM and the TGI (DLD-1 colon) was greater than 100 µM. For the same compound, the TGI (DMS 114 small cell lung) was 66.6 µM, the TGI (DMS 273 small cell lung) was 90.9 µM and the TGI (DU-145 prostate) was greater than 100 µM. It also gave a TGI (EKVX NSCLC) greater than 100 µM, a TGI (HCC-2998 colon) greater than 100 µM and a TGI (HCT-116 colon) of 27.1 µM. It also gave a TGI (HCT-15 colon) greater than 100 µM, a TGI (HL-60(TB) leukemia) greater than 100 µM and a TGI (HOP-18 NSCLC) greater than 94.3 µM. It also gave a TGI (HOP-62 NSCLC) of 20.1 µM, a TGI (HOP-92 NSCLC) greater than 97.3 µM and a TGI (HT29 colon) greater than 100 µM. The TGI (IGROV1 ovarian) was 54.7 µM, the TGI (K-562 leukemia) was greater than 46.4 µM and the TGI (KM12 colon) was greater than 87.9 µM. For the same compound, the TGI (KM20L2 colon) was greater than 100 µM, the TGI (LOX IMVI melanoma) was greater than 59.2 µM and the TGI (LXFL 529 NSCLC) was greater than 73.1 µM. It also gave a TGI (M14 melanoma) greater than 100 µM, a TGI (M19-MEL melanoma) greater than 100 µM and a TGI (MALME-3M melanoma) greater than 100 µM. For the same compound, the TGI (MCF7 breast) was greater than 100 µM, the TGI (MDA-MB-231 breast) was greater than 100 µM and the TGI (MDA-MB-435) was greater than 100 µM. The TGI (MDA-N) was greater than 100 µM, the TGI (MOLT-4 leukemia) was greater than 100 µM and the TGI (NCI-H226 lung) was 61.3 µM. It also gave a TGI (NCI-H23 lung) of 67.2 µM, a TGI (NCI-H460 lung) of 99.3 µM and a TGI (NCI-H522 lung) greater than 62.9 µM. It also gave a TGI (OVCAR-3 ovarian) of 24.2 µM, a TGI (OVCAR-4 ovarian) of 66.4 µM and a TGI (OVCAR-5 ovarian) greater than 100 µM. For the same compound, the TGI (OVCAR-8 ovarian) was 33.8 µM, the TGI (PC-3 prostate) was greater than 100 µM and the TGI (RPMI-8226 leukemia) was greater than 100 µM. For the same compound, the TGI (RXF 393 renal) was 41.9 µM, the TGI (RXF-631 renal) was greater than 100 µM and the TGI (SF-268 CNS) was greater than 83.1 µM. The TGI (SF-295 CNS) was greater than 94.3 µM, the TGI (SF-539 CNS) was 66.5 µM and the TGI (SK-MEL-2 melanoma) was 99.8 µM. For the same compound, the TGI (SK-MEL-28 melanoma) was greater than 100 µM, the TGI (SK-MEL-5 melanoma) was 59.6 µM and the TGI (SK-OV-3 ovarian) was 49.3 µM. It also gave a TGI (SN12C renal) of 87.5 µM, a TGI (SNB-19 CNS) of 47 µM and a TGI (SNB-75 CNS) of 43.9 µM. For the same compound, the TGI (SNB-78 CNS) was greater than 82.7 µM, the TGI (SR leukemia) was greater than 100 µM and the TGI (SW-620 colon) was greater than 100 µM. The TGI (T-47D breast) was 36.4 µM, the TGI (TK-10 renal) was 42.6 µM and the TGI (U251 CNS) was 45.1 µM. It also gave a TGI (UACC-257 melanoma) greater than 100 µM, a TGI (UACC-62 melanoma) greater than 100 µM and a TGI (UO-31 renal) of 46.6 µM. It also gave a TGI (XF 498 CNS) of 47.5 µM.
